Measured values reported in PMC7840908 (Communications Biology, 2021).
Several values for one entry are separate records, joined by “and”; a condition that tells them apart may be missing. Identical values can stand only once. Entries after “also recorded” stand apart in the source; their conditions may differ.

Assays:
MERS-CoV macro domain [1] = biological target: T1, MERS-CoV macro domain (Middle East respiratory syndrome-related coronavirus, UniProt K9N638); type: biochemical
MERS-CoV macro domain [2] = biological target: T1, MERS-CoV macro domain; type: binding
MERS-CoV macro domain [3] = biological target: T1, MERS-CoV macro domain; type: binding; remark: listed apart in the source
MERS-CoV macro domain [4] = biological target: T1, MERS-CoV macro domain; type: binding; remark: listed apart in the source
MERS-CoV macro domain [5] = biological target: T1, MERS-CoV macro domain; type: binding; remark: listed apart in the source
MERS-CoV = conditions: cited from earlier work

T1 sequence (K9N638 1110-1276 limits assumed): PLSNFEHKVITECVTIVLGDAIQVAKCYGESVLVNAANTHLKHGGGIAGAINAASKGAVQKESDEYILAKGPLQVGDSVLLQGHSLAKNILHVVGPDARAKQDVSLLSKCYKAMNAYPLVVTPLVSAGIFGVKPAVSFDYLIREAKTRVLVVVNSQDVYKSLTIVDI

Nc1ncnc2c1ncn2C1OC(COP(=O)(O)OP(=O)(O)OCC2OC(O)C(O)C2O)C(O)C1O (stereo not shown) [ADPR, ADP-ribose]
Effect on MAR signals in the deMAR reaction (MERS-CoV macro domain [1]): the MAR signals reduced fewer
NMR CSP, residue 2 (MERS-CoV macro domain [2]): 0.05411
NMR CSP, residue 3 (MERS-CoV macro domain [2]): 0.1983 and 0.2813
NMR CSP, residue 5 (MERS-CoV macro domain [2]): 0.069
NMR CSP, residue 6 (MERS-CoV macro domain [2]): 0.06294 and 0.07046
NMR CSP, residue 7 (MERS-CoV macro domain [2]): 0.1539 and 0.09995
NMR CSP, residue 8 (MERS-CoV macro domain [2]): 0.1145 and 0.09451
NMR CSP, residue 13 (MERS-CoV macro domain [2]): 0.06576 and 0.04291
NMR CSP, residue 15 (MERS-CoV macro domain [2]): 0.1078 and 0.09719
NMR CSP, residue 16 (MERS-CoV macro domain [2]): 0.1514 and 0.1186
NMR CSP, residue 17 (MERS-CoV macro domain [2]): 0.0814 and 0.0623
NMR CSP, residue 18 (MERS-CoV macro domain [2]): 0.08432 and 0.05219
NMR CSP, residue 19 (MERS-CoV macro domain [2]): 0.3848 and 0.3419
NMR CSP, residue 20 (MERS-CoV macro domain [2]): 0.8973 and 0.7322
NMR CSP, residue 22 (MERS-CoV macro domain [2]): 0.3525 and 0.4007
NMR CSP, residue 23 (MERS-CoV macro domain [2]): 0.383
NMR CSP, residue 25 (MERS-CoV macro domain [2]): 0.05156 and 0.08317
NMR CSP, residue 26 (MERS-CoV macro domain [2]): 0.1992 and 0.1277
NMR CSP, residue 27 (MERS-CoV macro domain [2]): 0.03208
NMR CSP, residue 28 (MERS-CoV macro domain [2]): 0.1376 and 0.09301
NMR CSP, residue 29 (MERS-CoV macro domain [2]): 0.03731 and 0.02244
NMR CSP, residue 31 (MERS-CoV macro domain [2]): 0.0401 and 0.04027
NMR CSP, residue 32 (MERS-CoV macro domain [2]): 0.3295 and 0.3317
NMR CSP, residue 40 (MERS-CoV macro domain [2]): 0.1305
NMR CSP, residue 42 (MERS-CoV macro domain [2]): 0.3421 and 0.2454
NMR CSP, residue 45 (MERS-CoV macro domain [2]): 0.9446
NMR CSP, residue 46 (MERS-CoV macro domain [2]): 1.504 and 1.393
NMR CSP, residue 48 (MERS-CoV macro domain [2]): 1.083
NMR CSP, residue 49 (MERS-CoV macro domain [2]): 0.7736
NMR CSP, residue 50 (MERS-CoV macro domain [2]): 0.4669 and 0.3863
NMR CSP, residue 51 (MERS-CoV macro domain [2]): 0.1048 and 0.1583
NMR CSP, residue 52 (MERS-CoV macro domain [2]): 0.2728 and 0.1547
NMR CSP, residue 53 (MERS-CoV macro domain [2]): 0.1687 and 0.136
NMR CSP, residue 54 (MERS-CoV macro domain [2]): 0.08878 and 0.08252
NMR CSP, residue 55 (MERS-CoV macro domain [2]): 0.1049 and 0.106
NMR CSP, residue 56 (MERS-CoV macro domain [2]): 0.1546 and 0.1346
NMR CSP, residue 57 (MERS-CoV macro domain [2]): 0.138 and 0.07814
NMR CSP, residue 59 (MERS-CoV macro domain [2]): 0.122 and 0.1437
NMR CSP, residue 60 (MERS-CoV macro domain [2]): 0.1518 and 0.1952
NMR CSP, residue 62 (MERS-CoV macro domain [2]): 0.2878 and 0.2628
NMR CSP, residue 63 (MERS-CoV macro domain [2]): 0.1045 and 0.05935
NMR CSP, residue 64 (MERS-CoV macro domain [2]): 0.3272 and 0.2442
NMR CSP, residue 66 (MERS-CoV macro domain [2]): 0.09722 and 0.08557
NMR CSP, residue 67 (MERS-CoV macro domain [2]): 0.1931 and 0.1393
NMR CSP, residue 68 (MERS-CoV macro domain [2]): 0.02796 and 0.05038
NMR CSP, residue 71 (MERS-CoV macro domain [2]): 0.06402
NMR CSP, residue 73 (MERS-CoV macro domain [2]): 0.05219
NMR CSP, residue 74 (MERS-CoV macro domain [2]): 0.2006 and 0.1195
NMR CSP, residue 76 (MERS-CoV macro domain [2]): 0.3259 and 0.302
NMR CSP, residue 77 (MERS-CoV macro domain [2]): 0.2091 and 0.1118
NMR CSP, residue 78 (MERS-CoV macro domain [2]): 0.3066 and 0.2179
NMR CSP, residue 79 (MERS-CoV macro domain [2]): 0.2231 and 0.1318
NMR CSP, residue 81 (MERS-CoV macro domain [2]): 0.02964 and 0.02247
NMR CSP, residue 82 (MERS-CoV macro domain [2]): 0.08035 and 0.07748
NMR CSP, residue 88 (MERS-CoV macro domain [2]): 0.05214 and 0.02732
NMR CSP, residue 90 (MERS-CoV macro domain [2]): 0.03514 and 0.02202
NMR CSP, residue 91 (MERS-CoV macro domain [2]): 0.0404 and 0.05921
NMR CSP, residue 92 (MERS-CoV macro domain [2]): 0.2456 and 0.1395
NMR CSP, residue 93 (MERS-CoV macro domain [2]): 0.4982 and 0.3283
NMR CSP, residue 94 (MERS-CoV macro domain [2]): 1.407 and 1.235
NMR CSP, residue 95 (MERS-CoV macro domain [2]): 0.4425 and 0.3726
NMR CSP, residue 97 (MERS-CoV macro domain [2]): 0.5401 and 0.4521
NMR CSP, residue 100 (MERS-CoV macro domain [2]): 0.1106 and 0.08163
NMR CSP, residue 105 (MERS-CoV macro domain [2]): 0.06587
NMR CSP, residue 106 (MERS-CoV macro domain [2]): 0.1936 and 0.1903
NMR CSP, residue 107 (MERS-CoV macro domain [2]): 0.1268 and 0.1117
NMR CSP, residue 108 (MERS-CoV macro domain [2]): 0.06699 and 0.04787
NMR CSP, residue 110 (MERS-CoV macro domain [2]): 0.1341 and 0.1262
NMR CSP, residue 116 (MERS-CoV macro domain [2]): 0.02109 and 0.03031
NMR CSP, residue 117 (MERS-CoV macro domain [2]): 0.04981 and 0.05032
NMR CSP, residue 120 (MERS-CoV macro domain [2]): 0.07982 and 0.07783
NMR CSP, residue 125 (MERS-CoV macro domain [2]): 0.9414 and 0.7836
NMR CSP, residue 126 (MERS-CoV macro domain [2]): 0.4011 and 0.2956
NMR CSP, residue 127 (MERS-CoV macro domain [2]): 0.636 and 0.5379
NMR CSP, residue 131 (MERS-CoV macro domain [2]): 0.2256 and 0.1765
NMR CSP, residue 132 (MERS-CoV macro domain [2]): 0.8759
NMR CSP, residue 133 (MERS-CoV macro domain [2]): 0.6064 and 0.6446
NMR CSP, residue 135 (MERS-CoV macro domain [2]): 0.1312 and 0.07635
NMR CSP, residue 136 (MERS-CoV macro domain [2]): 0.08199 and 0.1121
NMR CSP, residue 137 (MERS-CoV macro domain [2]): 0.1059 and 0.1517
NMR CSP, residue 138 (MERS-CoV macro domain [2]): 0.1473 and 0.115
NMR CSP, residue 139 (MERS-CoV macro domain [2]): 0.07462 and 0.1086
NMR CSP, residue 140 (MERS-CoV macro domain [2]): 0.04879 and 0.03054
NMR CSP, residue 141 (MERS-CoV macro domain [2]): 0.06216 and 0.08925
NMR CSP, residue 145 (MERS-CoV macro domain [2]): 0.2809 and 0.3196
NMR CSP, residue 148 (MERS-CoV macro domain [2]): 0.04359 and 0.06607
NMR CSP, residue 149 (MERS-CoV macro domain [2]): 0.112 and 0.08955
NMR CSP, residue 150 (MERS-CoV macro domain [2]): 0.04 and 0.03962
NMR CSP, residue 152 (MERS-CoV macro domain [2]): 0.255 and 0.1438
NMR CSP, residue 153 (MERS-CoV macro domain [2]): 0.3264 and 0.2803
NMR CSP, residue 154 (MERS-CoV macro domain [2]): 0.8835 and 0.7254
NMR CSP, residue 155 (MERS-CoV macro domain [2]): 0.3976 and 0.2797
NMR CSP, residue 156 (MERS-CoV macro domain [2]): 0.2021
NMR CSP, residue 157 (MERS-CoV macro domain [2]): 0.1187 and 0.09085
NMR CSP, residue 158 (MERS-CoV macro domain [2]): 0.04463 and 0.03077
NMR CSP, residue 162 (MERS-CoV macro domain [2]): 0.06097 and 0.0557
NMR CSP, residue 163 (MERS-CoV macro domain [2]): 0.2144 and 0.1623
NMR CSP, residue 164 (MERS-CoV macro domain [2]): 0.08089 and 0.05482
Melting temperature (Tm) of the MERS-CoV macro domain in complex, DSF (MERS-CoV macro domain [3]): 49.0 °C
Melting temperature (Tm) of the MERS-CoV macro domain in complex, CD (MERS-CoV macro domain [4]): 48.8 °C
entropy contribution (MERS-CoV macro domain [5]): −9.30 ± 17.61 J/mol K
n (stoichiometry of binding) (MERS-CoV macro domain [5]): 1.25 ± 0.08 and 1.20 ± 0.19

NC(=O)c1ccc[n+]([C@@H]2O[C@H](COP(=O)([O-])OP(=O)(O)OC[C@H]3O[C@@H](n4cnc5c(N)ncnc54)[C@H](O)[C@@H]3O)[C@@H](O)[C@H]2O)c1 [NAD, nicotinamide adenine dinucleotide]
Effect on MAR signals in the deMAR reaction (MERS-CoV macro domain [1]): the MAR signals reduced more
NMR CSP, residue 25 (MERS-CoV macro domain [2]): 0.05155 and 0.0863
NMR CSP, residue 27 (MERS-CoV macro domain [2]): 0.02171 and 0.02658
NMR CSP, residue 35 (MERS-CoV macro domain [2]): 0.0131
NMR CSP, residue 36 (MERS-CoV macro domain [2]): 0.01783
NMR CSP, residue 37 (MERS-CoV macro domain [2]): 0.07975
NMR CSP, residue 38 (MERS-CoV macro domain [2]): 0.01444
NMR CSP, residue 45 (MERS-CoV macro domain [2]): 0.2497
NMR CSP, residue 47 (MERS-CoV macro domain [2]): 0.006205
NMR CSP, residue 48 (MERS-CoV macro domain [2]): 0.04145
NMR CSP, residue 49 (MERS-CoV macro domain [2]): 0.01049
NMR CSP, residue 79 (MERS-CoV macro domain [2]): 0.07732 and 0.1287
NMR CSP, residue 104 (MERS-CoV macro domain [2]): 0.01357 and 0.02257
NMR CSP, residue 115 (MERS-CoV macro domain [2]): 0.005468 and 0.008456
NMR CSP, residue 124 (MERS-CoV macro domain [2]): 0.0754 and 0.108
NMR CSP, residue 128 (MERS-CoV macro domain [2]): 0.1673
NMR CSP, residue 129 (MERS-CoV macro domain [2]): 0.02609
NMR CSP, residue 130 (MERS-CoV macro domain [2]): 0.008538
NMR CSP, residue 132 (MERS-CoV macro domain [2]): 0.01478
NMR CSP, residue 140 (MERS-CoV macro domain [2]): 0.01724 and 0.02911
NMR CSP, residue 143 (MERS-CoV macro domain [2]): 0.0201 and 0.02422
NMR CSP, residue 156 (MERS-CoV macro domain [2]): 0.0383
NMR chemical shift perturbation behaviour / exchange regime (MERS-CoV macro domain [2]): only a few residues presented CSPs; also recorded: slow-exchange
Melting temperature (Tm) of the MERS-CoV macro domain in complex, DSF (MERS-CoV macro domain [3]): 46.5 °C
Melting temperature (Tm) of the MERS-CoV macro domain in complex, CD (MERS-CoV macro domain [4]): 46.6 °C
entropy contribution (MERS-CoV macro domain [5]): −22.59 ± 3.77 J/mol K
n (stoichiometry of binding) (MERS-CoV macro domain [5]): 1.04 ± 0.12 and 0.938 ± 0.13

Oc1ccc(/C=C/c2cc(O)cc(O)c2)cc1 [resveratrol]
Effect on replication of MERS-CoV (MERS-CoV): inhibit the replication of MERS-CoV
